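Growth conditions: 96-well plates. Treatment: test compound, 48 hours, 5 concentrations. Analysis: linear interpolation between bracketing concentrations; unreached endpoints set to highest concentration. The concentration for 50% growth inhibition is given as GI50.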 The source made the active and inactive calls. Cut-off read from the data, not from the text of the source: active = GI50 up to about 1.1 µM and inactive = higher.
Columns and labels:
Assay in all cases: DTP human tumour cell line panel, 48 h
U-251 = test system: U-251
K562 = test system: K562
SNB-19 = test system: SNB-19
RPMI-8226 = test system: RPMI-8226
NCI-H522 = test system: NCI-H522
A549 = test system: A549
M14 = test system: M14
CAKI-1 = test system: CAKI-1
SNB-75 = test system: SNB-75
A498 = test system: A498
UACC-62 = test system: UACC-62
SW-620 = test system: SW-620
IGROV-1 = test system: IGROV-1
NCI-H460 = test system: NCI-H460
OVCAR-3 = test system: OVCAR-3
786-0 = test system: 786-0
HOP-62 = test system: HOP-62
UACC-257 = test system: UACC-257

Structure (SMILES)	GI50 (U-251)	GI50 (K562)	GI50 (SNB-19)	GI50 (RPMI-8226)	GI50 (NCI-H522)	GI50 (A549)	GI50 (M14)	GI50 (CAKI-1)	GI50 (SNB-75)	GI50 (A498)	GI50 (UACC-62)	GI50 (SW-620)	GI50 (IGROV-1)	GI50 (NCI-H460)	GI50 (OVCAR-3)	GI50 (786-0)	GI50 (HOP-62)	GI50 (UACC-257)
Cc1ccc(/N=C/c2ccc3c(c2)OCO3)cc1C	8.13 µM (inactive)	> 10 µM (inactive)	> 100 µM (inactive)	> 100 µM (inactive)	> 100 µM (inactive)	> 100 µM (inactive)	> 100 µM (inactive)	> 100 µM (inactive)	> 100 µM (inactive)	> 100 µM (inactive)	> 100 µM (inactive)	> 100 µM (inactive)	> 100 µM (inactive)	> 100 µM (inactive)	> 100 µM (inactive)	> 100 µM (inactive)	–	–
CCOc1ccc(/C=N\N2C(=O)c3ccccc3C2=O)cc1	–	> 100 µM (inactive)	> 100 µM (inactive)	> 100 µM (inactive)	–	> 100 µM (inactive)	> 100 µM (inactive)	> 100 µM (inactive)	> 100 µM (inactive)	> 100 µM (inactive)	> 100 µM (inactive)	> 100 µM (inactive)	> 100 µM (inactive)	> 100 µM (inactive)	> 100 µM (inactive)	> 100 µM (inactive)	> 100 µM (inactive)	> 100 µM (inactive)
O=C(O)CC1CC=C[C@H]2c3cc4c(cc3C(=O)NC12)OCO4 (some centres not stated)	> 75 µM (inactive)	> 75 µM (inactive)	> 75 µM (inactive)	> 75 µM (inactive)	> 75 µM (inactive)	> 75 µM (inactive)	> 75 µM (inactive)	–	> 75 µM (inactive)	–	> 75 µM (inactive)	> 75 µM (inactive)	> 75 µM (inactive)	> 75 µM (inactive)	> 75 µM (inactive)	> 75 µM (inactive)	> 75 µM (inactive)	> 75 µM (inactive)
Cc1cc(NS(=O)(=O)c2ccc(NC(=O)c3cccc4c(=O)c5ccccc5[nH]c34)cc2)no1	29.9 µM (inactive)	36.1 µM (inactive)	36.2 µM (inactive)	33.8 µM (inactive)	14.2 µM (inactive)	> 100 µM (inactive)	–	65.8 µM (inactive)	23.1 µM (inactive)	28.8 µM (inactive)	26.1 µM (inactive)	55.6 µM (inactive)	40.5 µM (inactive)	93.3 µM (inactive)	29.4 µM (inactive)	10.2 µM (inactive)	21.6 µM (inactive)	87.7 µM (inactive)
O/N=C/c1ccc(O)c(O)c1	61.7 µM (inactive)	55.8 µM (inactive)	> 100 µM (inactive)	–	15.2 µM (inactive)	> 100 µM (inactive)	97.5 µM (inactive)	67.8 µM (inactive)	> 100 µM (inactive)	> 100 µM (inactive)	93.3 µM (inactive)	15.4 µM (inactive)	65 µM (inactive)	77.4 µM (inactive)	31.8 µM (inactive)	> 100 µM (inactive)	> 100 µM (inactive)	> 100 µM (inactive)
O=C1NN=CN2C(=O)CCC12 (configuration not stated)	> 100 µM (inactive)	> 100 µM (inactive)	> 100 µM (inactive)	> 100 µM (inactive)	–	> 100 µM (inactive)	> 100 µM (inactive)	> 100 µM (inactive)	> 100 µM (inactive)	> 100 µM (inactive)	> 100 µM (inactive)	> 100 µM (inactive)	> 100 µM (inactive)	> 100 µM (inactive)	> 100 µM (inactive)	> 100 µM (inactive)	> 100 µM (inactive)	> 100 µM (inactive)
CCCN(CCC)C(=O)c1nc(N)nc(-c2ccc(OC)cc2)c1-c1ccc(OC)cc1	> 100 µM (inactive)	84.1 µM (inactive)	> 100 µM (inactive)	29 µM (inactive)	98.9 µM (inactive)	> 100 µM (inactive)	> 100 µM (inactive)	> 100 µM (inactive)	37.5 µM (inactive)	> 100 µM (inactive)	> 100 µM (inactive)	> 100 µM (inactive)	> 100 µM (inactive)	> 100 µM (inactive)	> 100 µM (inactive)	> 100 µM (inactive)	–	> 100 µM (inactive)
CC(=O)Nc1ccc(S(=O)(=O)N/N=C/c2cc(I)cc([N+](=O)[O-])c2O)cc1	49.4 µM (inactive)	57.3 µM (inactive)	55.3 µM (inactive)	36.6 µM (inactive)	–	> 100 µM (inactive)	46.6 µM (inactive)	81.5 µM (inactive)	25.6 µM (inactive)	> 100 µM (inactive)	30.3 µM (inactive)	> 100 µM (inactive)	> 100 µM (inactive)	> 100 µM (inactive)	> 100 µM (inactive)	> 100 µM (inactive)	–	> 100 µM (inactive)
COc1cc(O)c(C(=O)/C=C/c2ccc(OC)c(OCc3ccccc3)c2)c(OC)c1	> 100 µM (inactive)	5.93 µM (inactive)	> 100 µM (inactive)	5.86 µM (inactive)	7.46 µM (inactive)	64.6 µM (inactive)	> 100 µM (inactive)	> 100 µM (inactive)	22.1 µM (inactive)	–	1.42 µM (inactive)	36.5 µM (inactive)	> 100 µM (inactive)	> 100 µM (inactive)	38.5 µM (inactive)	> 100 µM (inactive)	> 100 µM (inactive)	> 100 µM (inactive)
O=c1cc(-c2ccc(O)cc2)oc2cc(O)cc(O)c12 [APIGENIN]	22.6 µM (inactive)	32.7 µM (inactive)	29.7 µM (inactive)	37.7 µM (inactive)	15.8 µM (inactive)	42.9 µM (inactive)	44.4 µM (inactive)	–	21.6 µM (inactive)	–	24.8 µM (inactive)	–	28.6 µM (inactive)	31.4 µM (inactive)	24.2 µM (inactive)	34.3 µM (inactive)	43.6 µM (inactive)	30.8 µM (inactive)
CN(C)CC/C(=N\Nc1c(Cl)cccc1Cl)c1ccccc1	16.8 µM (inactive)	20.6 µM (inactive)	35.1 µM (inactive)	17.2 µM (inactive)	17.5 µM (inactive)	29.3 µM (inactive)	18.2 µM (inactive)	–	15.2 µM (inactive)	16.6 µM (inactive)	15.8 µM (inactive)	17.6 µM (inactive)	26.6 µM (inactive)	16.3 µM (inactive)	22.8 µM (inactive)	15.3 µM (inactive)	29.4 µM (inactive)	17.7 µM (inactive)
CC(=O)OCCc1cccnc1/C=N/O	> 100 µM (inactive)	> 100 µM (inactive)	> 100 µM (inactive)	–	> 100 µM (inactive)	> 100 µM (inactive)	> 100 µM (inactive)	> 100 µM (inactive)	> 100 µM (inactive)	–	> 100 µM (inactive)	> 100 µM (inactive)	> 100 µM (inactive)	> 100 µM (inactive)	> 100 µM (inactive)	> 100 µM (inactive)	> 100 µM (inactive)	> 100 µM (inactive)
Cc1cc(N(CCC#N)CCC#N)ccc1/N=N/c1ccc(C(=O)O)cc1	> 100 µM (inactive)	–	–	99.3 µM (inactive)	> 100 µM (inactive)	> 100 µM (inactive)	> 100 µM (inactive)	> 100 µM (inactive)	36.7 µM (inactive)	> 100 µM (inactive)	> 100 µM (inactive)	> 100 µM (inactive)	> 100 µM (inactive)	–	> 100 µM (inactive)	> 100 µM (inactive)	61 µM (inactive)	> 100 µM (inactive)
COc1cc(-c2cc(-c3cc([N+](=O)[O-])c(/C=N/NC(=O)c4ccncc4)o3)ccc2OC)ccc1C	–	> 100 µM (inactive)	> 100 µM (inactive)	> 100 µM (inactive)	> 100 µM (inactive)	> 100 µM (inactive)	> 100 µM (inactive)	> 100 µM (inactive)	> 100 µM (inactive)	> 100 µM (inactive)	> 100 µM (inactive)	> 100 µM (inactive)	> 100 µM (inactive)	–	> 100 µM (inactive)	> 100 µM (inactive)	> 100 µM (inactive)	> 100 µM (inactive)
CC12CC(=O)OC(Cc3ccccc31)O2 (configuration not stated)	> 100 µM (inactive)	> 100 µM (inactive)	> 100 µM (inactive)	> 100 µM (inactive)	> 100 µM (inactive)	> 100 µM (inactive)	> 100 µM (inactive)	–	> 100 µM (inactive)	–	> 100 µM (inactive)	> 100 µM (inactive)	> 100 µM (inactive)	> 100 µM (inactive)	> 100 µM (inactive)	> 100 µM (inactive)	> 100 µM (inactive)	> 100 µM (inactive)
COC(=O)[C@@]12OC[C@]34C([C@@H](O)C1O)[C@@]1(C)CC(=O)C(O)=C(C)C1C[C@H]3OC(=O)[C@H](OC(=O)CC(C)C(F)(F)F)[C@H]42 (some centres not stated)	0.0205 µM (active)	0.0157 µM (active)	0.00802 µM (active)	0.0116 µM (active)	0.00891 µM (active)	0.0265 µM (active)	0.0347 µM (active)	0.056 µM (active)	0.0445 µM (active)	0.0214 µM (active)	0.00748 µM (active)	0.022 µM (active)	0.0168 µM (active)	0.00542 µM (active)	–	0.0646 µM (active)	0.0989 µM (active)	0.0759 µM (active)
O=C1CCC2CCOc3ccc(O)c1c32 (configuration not stated)	> 100 µM (inactive)	> 100 µM (inactive)	> 100 µM (inactive)	> 100 µM (inactive)	> 100 µM (inactive)	> 100 µM (inactive)	> 100 µM (inactive)	–	> 100 µM (inactive)	> 100 µM (inactive)	> 100 µM (inactive)	–	> 100 µM (inactive)	> 100 µM (inactive)	> 100 µM (inactive)	> 100 µM (inactive)	> 100 µM (inactive)	> 100 µM (inactive)

— ChEMBL document CHEMBL1201862, “PubChem BioAssay data set” (2004)
